Laboratory results reported in patent US20160346226A1, “Therapeutic Applications Of Prenylated Stilbenoids Against Rotavirus Infections” (ARKANSAS STATE UNIVERSITY, priority 2015, published 2016).
Read-outs that look alike come from different tables or passages of the source.

Experiments:
[1] = tested on: RV-infected MA104 cells; details: reference [29]; cited from earlier work
[2] = tested on: mammalian cells; details: all cell lines, reference [3]; cited from earlier work
[3] = tested on: human leukemia HL-60 cells; details: reference [2]; cited from earlier work
[4] = tested on: cannabinoid receptor 1 (CB1R); details: cited from earlier work; for mode of action at CB1R: reference [19]; for modulation of the cannabinoid receptors: references [18, 19]
[5] = tested on: RV SA114F; experiment: Focus forming unit (FFU) viral titer of supernatants of RV-infected HT29.f8 cells treated with stilbenoids; assay type: cell-based, simian rotavirus SA114F
[6] = tested on: RV SA114F; experiment: Plaque forming unit (PFU) assay of the same supernatants; assay type: cell-based, simian rotavirus SA114F; details: 20 μM, average of three experiments, HT29.f8 supernatants
[7] = tested on: rotavirus (Wa) infected HT29.f8 cells; experiment: TEM observations of cell ultrastructure of rotavirus (Wa) infected HT29.f8 cells; assay type: cell-based, human; details: 20 μM, 18 hpi
Description: Observations of Cell Ultrastructure with TEM of Rotavirus (RV) Infected HT29.f8 Cells w/without t-A3
Mitochondria (M), rotavirus particles (RV), and a nucleolus (N) can be seen. Final Magnification=8,300×.

Row | SMILES | mode of action at CB1R [4] | modulation of the cannabinoid receptors [4] | change in virus titer (FFU) compared to RV-infected control [5] | difference in PFU/ml versus RV only and RV with DMSO [6] | also measured
1 | CCCCCCCCCCCCCCOc1ccc(C(=O)O)o1 [TOFA, 5-(tetradecyloxy)-2-furoic acid] | – | – | – | – | virus infectivity and viral RNA production [1]: dose-dependent reduction
2 | CC(C)/C=C/c1c(O)cc(/C=C/c2ccc(O)c(O)c2)cc1O [t-A1, Trans-Arachidin-1] | antagonize CB1R agonists by both competitive and non-competitive mechanisms | modulate the cannabinoid receptors at micromolar levels | one hundred fold decrease in virus titer | one hundred fold difference | cytotoxicity [2]: highest but moderate cytotoxicity; programmed cell death [3]: inducing programmed cell death
3 | CC(C)/C=C/c1c(O)cc(/C=C/c2ccc(O)cc2)cc1O [t-A3, trans-arachidin-3] | competitive cannabinoid receptor 1 (CB1R) antagonist | modulate the cannabinoid receptors at micromolar levels | one hundred fold decrease in virus titer | one hundred fold difference | RV particles observed that were noninfectious, immature enveloped particles [7]: about 50%; autophagic vesicles (AV) ([7]; RV(Wa)): absent; mitochondria ultrastructure ([7]; RV(Wa)): Many mitochondria present with normal ultrastructure; nucleoli ([7]; RV(Wa)): Nucleoli present; vesicles in the cytoplasm ([7]; RV(Wa)): not as many as in the RV(Wa) only
4 | Oc1ccc(/C=C/c2cc(O)cc(O)c2)cc1 [t-Res, Trans-resveratrol, reference compound] | – | – | – | no statistical differences | change in virus titer (FFU) compared to RV-infected control ([5]; 20 μM, 24 hours post-infection, HT29.f8 cells): no change in the virus titer
